Data published in patent publication US11517532B2, “Methods of treating hepatitis delta virus infection” (Eiger BioPharmaceuticals, Inc., priority 2015, dated 2022).
Where two headings read alike, the source gives them in different places.

What was measured:
[1] = Lonafarnib serum concentration in HDV patients, Example 3; format: in vivo, human; conditions: for LNF Serum Concentration at Week 6 / concentration at 6 weeks: oral; for LNF Serum Concentration at Week 6: listed as LNF; for concentration at 6 weeks: human, serum, po, read-out: LNF Serum Concentration at Week 6
Experimental: Serum levels of lonafarnib can be measured using art-known methods. As used herein, a serum lonafarnib level or concentration can be measured from a serum sample obtained from a subject periodically (such as weekly, biweekly, monthly or according to other schedules) and the levels during intervening periods can be extrapolated. For example, if a measurement of 4,000 ng/ml is obtained at 4 weeks and a measurement of 6,000 ng/ml is obtained at 6 weeks, for purposes of this analysis it is concluded that the serum level during the intervening two weeks ranged between 4,000 and 6,000 ng/ml. In some embodiments the first measurement is made no earlier than one week after the initiation of oral therapy.
This example describes the anti-HDV effect of combination therapy with separately formulated lonafarnib and ritonavir at several combinations of dosages. Eight patients with chronic HDV infection were divided into four groups and treated with different dose combinations of separately formulated lonafarnib and ritonavir (orally administered) for 42 days under the regimens summarized in Table 10. The patients were followed for an additional period of time after discontinuation of therapy.

[2] = cited from earlier work
[3] = formulated in crystalline forms, animals; cited from earlier work
[4] = Group 2 (Patients 3-4): lonafarnib 100 mg BID + ritonavir 50 mg QD
[5] = Group 3 (Patients 5-6): lonafarnib 100 mg QD + ritonavir 100 mg QD
[6] = Group 4 (Patients 7-8): lonafarnib 150 mg QD + ritonavir 100 mg QD

LNF Serum Concentration at Week 6 [1, 4]: 3044 ng/mL
LNF Serum Concentration at Week 6 [1, 5]: 1640 ng/mL
LNF Serum Concentration at Week 6 [1, 6]: 1830 ng/mL
lonafarnib serum levels (FIG. 6) ([1]; Patient 8, reduced correlation with HDV viral load): ~2,000 ng/mL
LNF serum concentrations ([1]; QD dosing of ritonavir): 2500 to 3500 ng/mL
concentration at 6 weeks [1, 4]: 4020 ng/mL
concentration at 6 weeks [1, 5]: 2340 ng/mL
concentration at 6 weeks [1, 6]: 1840 ng/mL
lonafarnib serum levels (FIG. 5) ([1]; one patient, 100 mg BID lonafarnib + 100 mg QD ritonavir, inverse correlation with HDV viral load): ~5,000 ng/mL
SMILES: NC(=O)N1CCC(CC(=O)N2CCC([C@H]3c4ncc(Br)cc4CCc4cc(Cl)cc(Br)c43)CC2)CC1 [lonafarnib]
stability in solution ([2]; by pH): stable at neutral pH but will hydrolyze in acidic or basic conditions
water solubility [2]: poorly water soluble
bioavailability [3]: low and variable
